Measured values reported in US20060147456A1, “Induction of apoptosis in toll-like receptor expressing tumor cells” (priority 2004, published 2006).

Columns and labels:
SKBr3 cells = assay: Apoptosis analysis of SKBr3 cells; type: cell-based; settings: for percentage of SKBr3 cells induced to apoptosis by Poly IC: summary statement
Protocol: We tried to further investigate whether any synergy exists between TLR3 ligands and type I IFN. The primary breast carcinoma cells SKBr3 were plated in 6 well plates at 3×10^5 cells per well. After overnight adherence, siRNA transfections were performed for 5 hours in OptiMEM medium (Life technologies) containing 3μg/mL lipofectamine 2000 (Invivogen) and 100 nM siRNA. Cells were transfected with either MOCK (water), TLR3 siRNA or PKR siRNA. Cells were then washed and cultured for 72 hours in complete medium before 24 hour treatment with 50 μg/ml Poly IC and apoptosis analysis.
In another experiment, we tried to determine whether IFN and Poly IC acted synergistically to induce apoptosis. SKBr3 cells were untreated or pre-treated with either 10 U/ml or 100 U/ml of a low dose mixture of IFN-α or IFN-β. Poly IC was administered in the following doses: 0, 0.5, 5 and 50 μg/ml for 48 hours.

Caspase 3 = assay: Western Blot for Caspase 3 in Cama-1 cells; type: cell-based, human; settings: Poly IC treatment
Protocol: Cama-1 cells were lysed in 1% Nonidet-P40-containing buffer. 20 μg total protein was loaded per lane on SDS-Polyacrylamide gels (Invitrogen). Western Blots (WB) were performed with standard techniques using the antibodies described above. Anti IRAK-4 monoclonal antibodies were generated in the laboratory according to the protocol described in Fossiez et al., “T cell interleukin-17 induces stromal cells to produce proinflammatory and hematopoietic cytokines”, J. Exp. Med., vol. 183(6), pp. 2593-2603 (1996).
We next addressed the role of caspases in apoptosis. Cama-1 cells were pre-incubated with 25 μM of the general caspase inhibitor z-VAD-fmk or DMSO for 1 hour before culture for 24 hours with or without 5 μg/ml Poly IC or 25 ng/ml TNF-α (used as a positive control). Apoptosis was measured by annexin V staining and expressed as a percentage of apoptotic cell in the culture.
In another experiment, lysates from cells obtained above were analyzed by Western Blot for cleavage of PARP, Caspase 3 and Caspase 8.

MCF-7 = assay: Cell recovery by crystal violet staining; type: cell-based, human; settings: 50 μg/ml Poly IC, 72 h
Protocol: (§1) Cell recovery after treatment with TLR ligands was measured by crystal violet staining (Sigma-Aldrich). Cells were plated at 10^4 cells/well in 96 well plates. After 72 hours of culture either with or without TLR ligand, the cells were washed with PBS, fixed in 6% formaldehyde (Sigma-Aldrich) for 20 minutes, washed twice, and then stained with 0.1% crystal violet for 10 minutes. After washes and incubation in 1% SDS for 1 hour, the absorbance was read at 605 nm on a Vmax plate reader (Molecular Devices, Sunnyvale, Calif.). Annexin V staining was performed with an annexin-FITC apoptosis detection kit (BD Pharmingen, San Diego, Calif.) according to the manufacturer's instructions. Sub-diploid cells were detected by staining with 3 μg/mL propidium iodide (PI) (Molecular probes, Eugene, Oreg.), after overnight permeabilization in 70% ethanol. Fluorescence was analyzed by flow cytometry on a FACScalibur (Becton Dickinson, Mountain View, Calif.) equipped with a doublet-discrimination module and using Celiquest Pro software (Becton Dickinson).
(§2) Four human breast tumor cell lines, Cama-1, SW527, BT483 and MCF-7, were analyzed for cell death in response to Poly IC. Cells were cultured for 72 hours with 5 μg/ml PGN, 50 μg/ml Poly IC or 10 μg/ml LPS. Control cells were cultured with PBS. Cytotoxicity was assessed by crystal violet staining and expressed as a percent of control.

Cama-1 = assay: Cell recovery by crystal violet staining; type: cell-based, human; settings: 50 μg/ml Poly IC, 72 h
Protocol: as §1, §2

BT483 = assay: Cell recovery by crystal violet staining; type: cell-based, human; settings: 50 μg/ml Poly IC, 72 h
Protocol: as §1, §2

SW527 = assay: Cell recovery by crystal violet staining; type: cell-based, human; settings: 50 μg/ml Poly IC, 72 h
Protocol: as §1, §2

Cama-1 cells = assay: BrdU incorporation and subdiploid DNA content by FACS; type: cell-based, human
Protocol: as §1
Two cell lines, the colon cancer cell line LS174T and the breast cancer cell line Cama-1, were analyzed for death and cell cycle changes. Cells were cultured for 48 hours in either the presence or absence of Poly IC (5 μg/ml). Following a 30-minute pulse with 1 μg/ml bromodeoxyuridine (BrdU), the cells were fixed overnight at 4° C. in 70% ethanol before staining with FITC-coupled anti-BrdU monoclonal antibody and 3 μg/ml propidium iodide. Cell death and the cell cycle were analyzed by flow cytometry (FACS). BrdU incorporation is a measure of proliferation, whereas propidium iodide staining allows the quantification of DNA content, in particular the subdiploid cell population undergoing apoptosis.
TLR3 was analyzed for its role in Poly IC induced apoptosis. Cama-1 cells were transfected with siRNA corresponding to either: an irrelevant sequence (Scr RNA; sequence: ACUAGUUCACGAGUCACCUtt) (SEQ ID NO: 21), or hTLR3 (sequence: CAGUGUUGAACCUUACCCAtt) (SEQ ID NO: 22). siRNA transfections were performed for 5 hours in 1 mL OptiMEM™ medium containing 3 μg/mL lipofectamine 2000 and 100 nM siRNA. Cells were then washed in phosphate buffered saline solution (PBS) and cultured for 72 hours in complete medium before subsequent 48 hour treatment with 5 μg/mL Poly IC. The cell cycle was then analyzed by FACS after staining with ethidium bromide, as described in Example 3.

[1] = test system: Cama-1, SW527, BT483 and MCF-7; assay: Cell recovery by crystal violet staining, four breast tumor cell lines together; type: cell-based, human; settings: 72 h; 5 μg/ml PGN, 50 μg/ml Poly IC or 10 μg/ml LPS; average of the four cell lines
Protocol: as §1, §2
Furthermore, additional TLR ligands were tested to determine any possible effects on cellular toxicity. The ligands tested were PGN, LPS, Flagellin, R848 and CpG. Cells were cultured for 72 hours with 5 μg/ml PGN, 10 μg/ml LPS, 50 ng/ml flagellin, 6 μg/ml R848, 10 μg/ml CpG ODNs, or with PBS as control. Cell recovery was assessed by crystal violet staining and expressed as a percent of control.

polyinosinic-polycytidylic acid [Poly IC]
percentage of apoptotic cells (SKBr3 cells; SKBr3, 0.5 μg/ml Poly IC 48 h, no IFN pre-treatment): 15% | percentage of apoptotic cells (SKBr3 cells; SKBr3, 0.5 μg/ml Poly IC 48 h, pre-treated IFN-α/β 10 U/ml): 45% | percentage of apoptotic cells (SKBr3 cells; SKBr3, 0.5 μg/ml Poly IC 48 h, pre-treated IFN-α/β 100 U/ml): 55% | percentage of apoptotic cells (SKBr3 cells; SKBr3, 5 μg/ml Poly IC 48 h, no IFN pre-treatment): 20% | percentage of apoptotic cells (SKBr3 cells; SKBr3, 5 μg/ml Poly IC 48 h, pre-treated IFN-α/β 10 U/ml): 55% | percentage of apoptotic cells (SKBr3 cells; SKBr3, 5 μg/ml Poly IC 48 h, pre-treated IFN-α/β 100 U/ml): 60% | percentage of apoptotic cells (SKBr3 cells; SKBr3, 50 μg/ml Poly IC 48 h, no IFN pre-treatment): 20% | percentage of apoptotic cells (SKBr3 cells; SKBr3, 50 μg/ml Poly IC 48 h, pre-treated IFN-α/β 10 U/ml): 55% | percentage of apoptotic cells (SKBr3 cells; SKBr3, 50 μg/ml Poly IC 48 h, pre-treated IFN-α/β 100 U/ml): 60% | Poly IC concentration at which cells become sensitive to apoptosis, IFN pre-treated versus non-pretreated cells (SKBr3 cells; SKBr3, type I IFN pre-treatment): one hundred fold lower | percentage of apoptotic cells (SKBr3 cells; SKBr3 MOCK group, 24 h, 50 μg/ml Poly IC, untreated 10%): 22% | percentage of apoptotic cells (SKBr3 cells; SKBr3 PKR siRNA group, 24 h, 50 μg/ml Poly IC, untreated 12%): 22% | percentage of apoptotic cells (SKBr3 cells; SKBr3 TLR3 siRNA group, 24 h, 50 μg/ml Poly IC, untreated 8%): 13% | percentage of SKBr3 cells induced to apoptosis by Poly IC (SKBr3 cells; after type I IFN pre-treatment): 66% | percentage of SKBr3 cells induced to apoptosis by Poly IC (SKBr3 cells; without type I IFN pre-treatment): 22% | caspase 3 activation (Caspase 3): activated | cell recovery, percent of control (MCF-7): 100% | cell recovery, percent of control (Cama-1): 33% | cell recovery, percent of control (BT483): 67% | cell recovery, percent of control (SW527): 75% | percentage of cells with subdiploid DNA content (Cama-1 cells; Cama-1, 48 h with 5 μg/ml Poly IC (4% before treatment)): 17% | percentage of cells that incorporated BrdU (Cama-1 cells; Cama-1, 48 h with 5 μg/ml Poly IC (15% before treatment)): 2% | percentage of subdiploid cells (Cama-1 cells; Cama-1 transfected with hTLR3 siRNA, 48 h with 5 μg/mL Poly IC): 3% | percentage of subdiploid cells (Cama-1 cells; Cama-1 transfected with scrambled RNA, 48 h with 5 μg/mL Poly IC (from 2%)): 45% | cell recovery, percent of control, on average [1]: 67.5%
